Papp data for 13 compounds are collected here from patent publication US20230096766A1, “AMINO ACID HAVING FUNCTIONAL GROUP CAPABLE OF INTERMOLECULAR HYDROGEN BONDING, PEPTIDE COMPOUND CONTAINING SAME AND METHOD FOR PRODUCTION THEREOF” (Chugai Seiyaku Kabushiki Kaisha, priority 2018, published 2023).

In general, Papp refers to the rate of passage across a membrane or cell layer, normalised by area and donor concentration. A higher Papp goes with ready permeation.

Molecules are shown by their SMILES. *1 amine or outer side, *2 acyl side, *3 side chain or, on linkers, in order; H or OH if unused. Where a SMILES comes first, the peptide text is derived from it. Bridges are numbered along the chain shown (N, C = ends). [ ]: non-standard residue; d: D form. The star is where a group is joined. ξ: configuration not given here. NMeAla(4-thiazolyl) = CN[C@@H](Cc1cscn1)C(=O)O; X12 = O=C([C@H](CCCC(O)C(F)(F)F)N[*:1])[*:2]; NMeW = CN[C@@H](Cc1c[nH]c2ccccc12)C(=O)O; X9 = O=C([C@@H](CN[*:1])COCCO)[*:2]; Propyl(2,2-Me2,3-OH) = CC(C)(CO)C*; NMeF = CN[C@@H](Cc1ccccc1)C(=O)O; NMeGABA = CN(CCCC(=O)[*:2])[*:1]; NMeI = CC[C@H](C)[C@H](NC)C(=O)O; NMeD = CN[C@@H](CC(=O)O)C(=O)O; CH2CH(OH)CF3 = OC(C*)C(F)(F)F; NMeL = CN[C@@H](CC(C)C)C(=O)O; ξNMeF = CNC(Cc1ccccc1)C(=O)O; NMeV = CN[C@H](C(=O)O)C(C)C; NMeA = CN[C@@H](C)C(=O)O; Piperidide = C1CCN(*)CC1; CH2CMe2OH = CC(C)(O)C*; NBuGly = CCCCNCC(=O)O; NPrGly = CCCNCC(=O)O; Propyl(3-OH) = OCCC*; Sar = CNCC(=O)O; tBu = CC(C)(C)*

The first data set in a line: in vitro. To be noted: human, Caco-2, Caco-2 (cm/sec).
For the compound `CC(C)C[C@@H]1NC(=O)[C@H](Cc2c[nH]c3ccccc23)N(C)C(=O)[C@@H](C(C)C)NC(=O)C[C@@H](C(=O)N2CCCCC2)NC(=O)[C@H](CC(C)C)N(C)C(=O)[C@H](CC(C)C)N(C)C(=O)[C@H](COC(C)(C)C)NC(=O)[C@H](CC(C)C)N(C)C(=O)CN(C)C(=O)[C@H]([C@@H](C)O)NC(=O)[C@H](CC(C)C)N(C)C1=O` [pd106] ([dV][NMeW]L[NMeL]T[Sar][NMeL]S(tBu)[NMeL][NMeL]D-Piperidide; lactam N-11), the Papp was found to be 0.36 ×10⁻⁶ cm/s.
Same read-out and setting: with `CC(C)C[C@@H]1NC(=O)[C@H](CC(C)C)N(C)C(=O)[C@H](C)N(C)C(=O)[C@@H](C(C)C)NC(=O)C[C@@H](C(=O)N2CCCCC2)NC(=O)[C@H]([C@@H](C)O)NC(=O)[C@H](C)N(C)C(=O)CN(C)C(=O)[C@H](CC(C)C)N(C)C(=O)[C@H](Cc2c[nH]c3ccccc23)NC(=O)[C@H](Cc2ccccc2)N(C)C1=O` [pd100] ([dV][NMeA][NMeL]L[NMeF]W[NMeL][Sar][NMeA]TD-Piperidide; lactam N-11) the figure was 0.11 ×10⁻⁶ cm/s; with `CC(C)C[C@@H]1NC(=O)[C@H](Cc2ccccc2)N(C)C(=O)[C@H](COC(C)(C)C)NC(=O)[C@H](Cc2ccccc2)N(C)C(=O)[C@H](C)N(C)C(=O)[C@H](CC(C)C)N(C)C(=O)[C@@H](C)NC(=O)C[C@@H](C(=O)N2CCCCC2)N(C)C(=O)[C@H](Cc2ccccc2)N(C)C(=O)[C@H]([C@@H](C)O)NC(=O)[C@H](C(C)C)N(C)C1=O` [pd208] ([dA][NMeL][NMeA][NMeF]S(tBu)[NMeF]L[NMeV]T[NMeF][NMeD]-Piperidide; lactam N-11), 1.7 ×10⁻⁶ cm/s.
Same read-out and setting: with `CC[C@H](C)[C@@H]1NC(=O)[C@H](CC(C)C)N(C)C(=O)CCCN(C)C(=O)C[C@@H](C(=O)N2CCCCC2)NC(=O)[C@H](CC(C)C)N(C)C(=O)[C@H](CC(C)C)N(C)C(=O)[C@H]([C@@H](C)O)NC(=O)[C@H](CC(C)C)N(C)C(=O)[C@H](Cc2ccc(O)cc2)NC(=O)[C@H](CC(C)C)N(C)C(=O)[C@H](Cc2ccccc2)N(C)C1=O` [Compound F03] ([NMeGABA][NMeL]I[NMeF][NMeL]Y[NMeL]T[NMeL][NMeL]D-Piperidide; lactam N-11) the figure was 0.13 ×10⁻⁶ cm/s; with `CC[C@H](C)[C@H]1C(=O)N[C@@H](Cc2ccc(O)cc2)C(=O)N(C)CC(=O)N(C)[C@@H](CC(C)C)C(=O)N[C@H](C(=O)N2CCCCC2)CC(=O)N(C)[C@@H](C)C(=O)N[C@@H](C(C)C)C(=O)N(C)[C@@H](CC(C)C)C(=O)N(C)[C@@H](CC(C)C)C(=O)N[C@@H](C)C(=O)N(C)[C@@H](Cc2ccccc2)C(=O)N1C` [pd126] ([NMeA]V[NMeL][NMeL]A[NMeF][NMeI]Y[Sar][NMeL]D-Piperidide; lactam N-11), 0.42 ×10⁻⁶ cm/s; with `CCCN1CC(=O)N(C)[C@@H](Cc2ccccc2)C(=O)N(C)[C@@H](CC(C)C)C(=O)N[C@@H](COCC(C)(C)O)C(=O)N(C)[C@@H](CC(C)C)C(=O)N[C@H](C(=O)N2CCCCC2)CC(=O)N(C)CC(=O)N(C)[C@@H](Cc2ccccc2)C(=O)N[C@@H]([C@@H](C)CC)C(=O)N(C)[C@@H](CC(C)C)C(=O)N[C@@H]([C@@H](C)O)C1=O` [AP08] ([Sar][NMeF]I[NMeL]T[NPrGly][NMeF][NMeL]S(CH2CMe2OH)[NMeL]D-Piperidide; lactam N-11), 0.67 ×10⁻⁶ cm/s.
Still for that read-out and setting: with `CCCCN1CC(=O)N(C)[C@@H](Cc2ccccc2)C(=O)N[C@@H]([C@@H](C)CC)C(=O)N(C)[C@@H](CC(C)C)C(=O)N[C@@H]([C@@H](C)O)C(=O)N(CCC)CC(=O)N(C)[C@@H](Cc2ccccc2)C(=O)N(C)[C@@H](CC(C)C)C(=O)NC[C@@H](COCCO)C(=O)N(C)[C@@H](CC(C)C)C(=O)N[C@H](C(=O)N2CCCCC2)CC1=O` [AP134] ([NBuGly][NMeF]I[NMeL]T[NPrGly][NMeF][NMeL][X9][NMeL]D-Piperidide; lactam N-11) the figure was 0.62 ×10⁻⁶ cm/s.
`CC[C@H](C)[C@H]1C(=O)N[C@@H]([C@@H](C)O)C(=O)N(C)CC(=O)N(C)[C@@H](C)C(=O)N[C@H](C(=O)N2CCCCC2)CC(=O)N(C)[C@@H](C)C(=O)N[C@@H](C(C)C)C(=O)N(C)[C@@H](CC(C)C)C(=O)N(C)[C@@H](Cc2ccccc2)C(=O)NC(COc2cccc(Cl)c2)C(=O)N(C)[C@@H](Cc2ccccc2)C(=O)N1C` (stereo partly shown) [pd186] came in with a Papp of 1.8 ×10⁻⁶ cm/s.
Same read-out and setting: with `CCCCN1CC(=O)N(C)[C@@H](CC(C)C)C(=O)N[C@@H](COCC(C)(C)CO)C(=O)N(C)[C@@H](Cc2ccccc2)C(=O)N(C)[C@@H](CC(C)C)C(=O)N[C@H](C(=O)N2CCCCC2)CC(=O)N[C@H](C(C)C)C(=O)N(C)C(Cc2ccccc2)C(=O)N[C@@H](CC(C)C)C(=O)N(C)[C@@H](CC(C)C)C(=O)N[C@@H]([C@@H](C)O)C1=O` (stereo partly drawn) [AP126] ([dV][ξNMeF]L[NMeL]T[NBuGly][NMeL]S(Propyl(2,2-Me2,3-OH))[NMeF][NMeL]D-Piperidide; lactam N-11) the figure was 0.14 ×10⁻⁶ cm/s.
In the case of `CCCCN1CC(=O)N(C)[C@@H](CC(C)C)C(=O)N[C@@H](COC(C)(C)C)C(=O)N(C)[C@@H](Cc2ccccc2)C(=O)N(C)[C@@H](CC(C)C)C(=O)N[C@H](C(=O)N2CCCCC2)CC(=O)N[C@H](CC(C)C)C(=O)N(C)[C@@H](Cc2ccccc2)C(=O)N[C@@H](COCCCO)C(=O)N(C)[C@@H](CC(C)C)C(=O)N[C@@H]([C@@H](C)O)C1=O` [AP89] ([dL][NMeF]S(Propyl(3-OH))[NMeL]T[NBuGly][NMeL]S(tBu)[NMeF][NMeL]D-Piperidide; lactam N-11), the Papp worked out at 0.12 ×10⁻⁶ cm/s.

The same data set, now with this note: human, Caco-2, Caco-2 (cm/sec) Papp.
In the case of `CC(C)C[C@@H]1NC(=O)[C@H](CC(C)C)N(C)C(=O)C[C@@H](C(=O)N2CCCCC2)NC(=O)[C@H](CC(C)C)N(C)C(=O)CN(C)C(=O)[C@H]([C@@H](C)O)NC(=O)[C@H](Cc2cscn2)N(C)C(=O)[C@H](Cc2ccccc2)N(C)C(=O)[C@H](Cc2ccccc2)NC(=O)[C@H](Cc2ccccc2)N(C)C(=O)[C@H](CC(C)C)N(C)C1=O` [pd228] ([NMeL]L[NMeL][NMeF]F[NMeF][NMeAla(4-thiazolyl)]T[Sar][NMeL]D-Piperidide; lactam N-11), the Papp is 0.58 ×10⁻⁶ cm/s.

The same data set, now with this note: human, Caco-2, Caco-2 (membrane permeability).
The compound `CCCCN1CC(=O)N(C)[C@@H](Cc2ccccc2)C(=O)N(C)[C@@H](CC(C)C)C(=O)N[C@@H](CCCC(O)C(F)(F)F)C(=O)N(C)[C@@H](CC(C)C)C(=O)N[C@H](C(=O)N2CCCCC2)CC(=O)N(C)CC(=O)N(C)[C@@H](Cc2ccccc2)C(=O)N[C@@H]([C@@H](C)CC)C(=O)N(C)[C@@H](CC(C)C)C(=O)N[C@@H]([C@@H](C)O)C1=O` (stereo partly drawn) [Compound D07] ([Sar][NMeF]I[NMeL]T[NBuGly][NMeF][NMeL][X12][NMeL]D-Piperidide; lactam N-11) registered a Papp of 0.37 ×10⁻⁶ cm/s.
The same measure, in the same setting: with `CC[C@H](C)[C@@H]1NC(=O)[C@H](CC(C)C)N(C)C(=O)[C@H](COCC(O)C(F)(F)F)NC(=O)[C@H](Cc2ccccc2)N(C)C(=O)CN(C)C(=O)C[C@@H](C(=O)N2CCCCC2)NC(=O)[C@H](CC(C)C)N(C)C(=O)[C@H](COC(C)(C)C)NC(=O)[C@H](CC(C)C)N(C)C(=O)[C@H](Cc2ccccc2)N(C)C(=O)CN(C)C1=O` (stereo partly drawn) [Compound C17] ([Sar][NMeF]S(CH2CH(OH)CF3)[NMeL]I[Sar][NMeF][NMeL]S(tBu)[NMeL]D-Piperidide; lactam N-11) the figure was 4.1 ×10⁻⁶ cm/s.
